In PubChem BioAssay AID652060 (Broad Institute, 2013) one finds luciferase activity increase and AC40 data, which are given here for 46 molecules.

SMILES strings stand for the structures. Calls of active or inactive are those of the source. How the calls were made is not given here.

Test system in the first assay: not listed separately
Nature of the assay: false-positive firefly luciferase signal increase – D54 LucT cells, luminescence, dry powder, counter-screen for N-linked glycosylation inhibitor project, dose response (AID 652060). The settings on record: D54 LucT luciferase counterscreen, luminescence, 24 h; at 19.5 µM (top of the series). In general terms: A counterscreen serves to expose hits that act by an unwanted route or on another target.
In the case of `CC(=O)c1cccc(NC(=O)CSc2ncc(C(=O)Nc3ccccc3)c(=O)n2C)c1`, the luciferase activity increase was 33.3% (inactive). Consider `Cc1[nH][nH]c(=O)c1C(c1ccc(-c2ccc(Cl)c(Cl)c2)o1)c1c(C)[nH][nH]c1=O`, for which the luciferase activity increase is 0% (inactive). On to `CCn1c2ccccc2c2cc(NC(=O)c3cc(OC)c(OC)c(OC)c3)ccc21`, for which the luciferase activity increase is -33.3% (inactive).

With `COc1cccc(N2CCN(C(=O)c3ccc(CS(=O)c4ccc(C)cc4)o3)CC2)c1` (stereo unspecified), the luciferase activity increase is 0% (inactive). For `Cc1ccc(CCC(=O)Nc2ncc(Cc3cc(Cl)ccc3Cl)s2)o1`, the luciferase activity increase is -33.3% (inactive). The same measure, in the same setting: under `Cc1cccc(C)c1OCCNC(=O)C(=O)NCc1ccco1` stands 33.3% (inactive); under `COc1cc(Nc2c3c(nc4ccccc24)CCCC3)cc(OC)c1OC`, 0% (inactive). On the same count and under the same terms, under `CC(=O)N[C@H]1[C@@H](O[C@@H]2OC(C[C@@H](O)C3O[C@@H](n4ccc(=O)[nH]c4=O)[C@H](O)[C@@H]3O)[C@H](O)[C@H](O)[C@H]2NC(=O)/C=C/CCCCCCCCCCC(C)C)O[C@H](CO)[C@@H](O)[C@@H]1O` (stereo partly specified) stands -50% (inactive).

On to `CCCCOc1ccccc1C1CC(=O)NC2=C1C(=O)CCC2` (stereo unspecified), for which the luciferase activity increase is 0% (inactive). As for `Cc1cc(=O)[nH]c(N/N=C/c2cc(C)n(CC(F)(F)F)c2C)n1`, the luciferase activity increase was 0% (inactive). On the same count and under the same terms, under `COc1ccc(NC(=O)C(=O)c2cn(CC(=O)N3CCCC3)c3ccccc23)cc1` stands -33.3% (inactive). On the same count and under the same terms, under `CCOc1ccc(S(=O)(=O)NCc2ccccn2)cc1NC(=O)c1ccccc1F` stands 0% (inactive). In the case of `Brc1ccc(CSc2nnc(-c3ccccc3)o2)cc1`, the luciferase activity increase was 0% (inactive). On the same count and under the same terms, with `CCC1=Nc2cc(C(=O)NCCCOC)ccc2Sc2ccccc21` the figure was -33.3% (inactive); with `CCOC(=O)COc1cccc2c(=O)n(CC(=O)NCc3ccccc3)ccc12`, 0% (inactive); with `CC(=O)c1ccc(Oc2cc(C)nc(-n3nc(C)cc3C)n2)cc1`, 0% (inactive). Same read-out and setting: under `O=C1CCN(Cc2ccccc2)c2cc3ccccc3cc21` stands 0% (inactive); under `Cc1ccc(C(=O)c2cc([N+](=O)[O-])ccc2N2CCOCC2)cc1C`, 66.7% (inactive). Still for that read-out and setting: under `COc1cc(C(=O)NCCOc2cc(C)cc(C)c2)cc(OC)c1OC` stands 33.3% (inactive); under `O=C(Cc1ccccc1)c1nnc(-c2ccccc2)o1`, 33.3% (inactive); under `CC(=O)N1CCC(=O)c2cc3ccccc3cc21`, 33.3% (inactive). Consider `COc1ccc(CSc2nnc(-c3ccccc3)o2)cc1`, for which the luciferase activity increase is 50% (inactive). On the same count and under the same terms, under `COc1ccc2c(COC(=O)c3cccc(S(=O)(=O)NCC(C)C)c3)cc(=O)oc2c1` stands 66.7% (inactive); under `C/C(=N\NC(=O)c1c([N+](=O)[O-])c(C)nn1C)c1ccc(NC(=O)C2CCCC2)cc1`, 0% (inactive). The same measure, in the same setting: with `CCN(CC)CCOc1ccc2c(c1)C(=NNC(=O)c1ccccn1)c1cc(OCCN(CC)CC)ccc1-2` the figure was -33.3% (inactive). The same measure, in the same setting: with `Cc1ccc(Oc2ccc(S(=O)(=O)N3CCOCC3)cc2C(N)=O)c(-n2nc3ccccc3n2)c1` the figure was 33.3% (inactive); with `Cc1cc(NC(=O)CSc2nc(-c3ccco3)cc(C(F)(F)F)n2)no1`, 0% (inactive); with `CCOc1ccc(NC(=O)c2cc(OC)nc3ccccc23)cc1`, 0% (inactive).

Regarding `COc1ccccc1OCC(=O)NNC(=O)c1ccoc1C`, the luciferase activity increase is 33.3% (inactive). Consider `CCCOC(=O)c1[nH]c2c(c1C)C(=O)CC(c1cccs1)C2` (stereo unspecified), for which the luciferase activity increase is 50% (inactive). Same read-out and setting: with `CCN(CC)CCCNc1nc2cc(OC)c(OC)cc2c2nc(-c3ccccc3)nn12` the figure was -33.3% (inactive). On to `O=C1CCNc2cc3ccccc3cc21`, for which the luciferase activity increase is -66.7% (inactive). For the molecule `Cc1cnc(NC(=O)c2cc(S(=O)(=O)N(C)C)ccc2N2CCCC2)s1`, the luciferase activity increase was 0% (inactive).

Take `Cc1cc(C)nc(/N=C(\N)Nc2ccc(OCc3ccccc3)cc2)n1`: the luciferase activity increase was -33.3% (inactive). Take `Cc1cc(C)cc(C(=O)N2CC(=O)Nc3ccccc32)c1`: the luciferase activity increase was 33.3% (inactive). As to `CCN(CC)CCC(=O)Nc1cccc2c1C(=O)c1ccccc1C2=O`, the luciferase activity increase is -33.3% (inactive).

Another assay concerns D54 LucT luciferase counterscreen, luminescence, 24 h. The assay is described as above.
Settings: not given
On to `COC(=O)c1cn(C(=O)c2ccc(OC)cc2)c2ccccc12`, for which the AC40 was 15400 nM. Same read-out and setting: under `CCOC(=O)c1ccc(Oc2cc(C)nc(SC)n2)cc1` stands 3390 nM. Still for that read-out and setting: with `Cc1ccc(/C=N/NC(=O)C2COc3ccccc3O2)s1` (stereo unspecified) the figure was 15300 nM; with `COc1ccccc1-c1nnc(SCc2ccccc2)o1`, 632 nM; with `O=C(N/N=C/c1ccc(Cl)cc1)c1sccc1OCc1ccc(F)cc1`, 1600 nM. On the same count and under the same terms, under `Nc1nc(=S)c2ncn([C@@H]3O[C@H](CO)[C@@H](O)[C@H]3O)c2[nH]1` stands 5190 nM; under `COc1ccccc1CSc1nnc(-c2ccccc2)o1`, 845 nM.

As to `COc1ccc(-c2nnc(SCc3ccccc3)o2)cc1`, the AC40 is 5120 nM.

Regarding `CCCNS(=O)(=O)c1cccc(C(=O)OCc2cc(=O)oc3cc(OC)ccc23)c1`, the AC40 was 2140 nM. Same read-out and setting: under `COc1cc(-c2nnc(SCC3(c4ccc(Br)cc4)OCCO3)o2)cc(OC)c1OC` stands 930 nM.
